In US5989326A, “Dyes for ink jet printing” (Ilford Imaging Switzerland GmbH, priority 1997, dated 1999):
Where “and” joins values, the source holds several entries; their conditions need not be identical. Identical values can stand only once.

What was measured:
[1] = Dye solubility in deionised water; assay type: physicochemical; conditions: for Solubility: deionised water, stirred 1 hour at 50° C., cooled to 20° C.; for Solubility, comparison in words: versus previously known black disazo dyes 12 and 14
Protocol: The dye was dispersed or solubilised in deionised water and the dispersion or solution was stirred for one hour at 50° C. Then the mixture was cooled down to 20° C., centrifuged and filtered. The solubility of the dye was calculated a) from UV/VIS spectral data of the mother liquor (solution) or b) based on the dried filter residue.

[2] = Absorption maximum in water; assay type: physicochemical
Text: The absorption maxima and the results of the tests (B) to (D) are reported in Table 6 for the dyes of the invention and the comparative values for previously known disazo dyes in Table 7.

SMILES | Solubility [1] | Solubility, comparison in words [1] | HD max in water [2]
Cc1cc(N=Nc2c(S(=O)(=O)O)cc3ccc(NCCS(=O)(=O)O)cc3c2O)c(OCCO)cc1N=Nc1cccc(S(=O)(=O)O)c1 [Compound 2] | > 20 g per 100 ml | much higher solubility | 
COc1cc(N=Nc2cccc(C(=O)O)c2)c(C)cc1N=Nc1c(S(=O)(=O)O)cc2ccc(N)cc2c1O [Compound 15, reference compound] |  |  | 557 nm
COc1cc(N=Nc2c(S(=O)(=O)O)cc3ccc(NCCS(=O)(=O)O)cc3c2O)c(OC)cc1N=Nc1cc(S(=O)(=O)O)c2cccc(S(=O)(=O)O)c2c1 [Compound 7] |  |  | 595 nm and 491 nm
COc1cc(N=Nc2cccc(S(=O)(=O)O)c2)c(C)cc1N=Nc1c(S(=O)(=O)O)cc2ccc(NCCS(=O)(=O)O)cc2c1O [Compound 1] |  |  | 569 nm
COc1cc(N=Nc2c(S(=O)(=O)O)cc3ccc(Nc4ccc(C(=O)O)cc4)cc3c2O)c(OC)cc1N=Nc1ccc(C(=O)O)cc1 [Compound 14, reference compound] | 17 g per 100 ml |  | 584 nm
COc1cc(N=Nc2cccc(C(=O)O)c2)c(NC(C)=O)cc1N=Nc1c(S(=O)(=O)O)cc2ccc(Nc3ccc(C(=O)O)cc3)cc2c1O [Compound 12, reference compound] | 3.6 g per 100 ml |  | 498 nm
COc1cc(N=Nc2cc(S(=O)(=O)O)c3cccc(S(=O)(=O)O)c3c2)c(C)cc1N=Nc1c(S(=O)(=O)O)cc2ccc(NCCS(=O)(=O)O)cc2c1O [Compound 4] | > 20 g per 100 ml | much higher solubility | 584 nm
COc1cc(N=Nc2cccc(C(=O)O)c2)c(NC(C)=O)cc1N=Nc1c(S(=O)(=O)O)cc2ccc(NCCC(=O)O)cc2c1O [Compound 13, reference compound] |  |  | 488 nm
Cc1cc(N=Nc2c(S(=O)(=O)O)cc3ccc(Nc4cccc(S(=O)(=O)O)c4)cc3c2O)ccc1N=Nc1cc(S(=O)(=O)O)c2cccc(S(=O)(=O)O)c2c1 [Compound 10, reference compound] |  |  | 559 nm
Cc1cc(N=Nc2c(S(=O)(=O)O)cc3ccc(NCCS(=O)(=O)O)cc3c2O)c(OCCO)cc1N=Nc1cc(S(=O)(=O)O)c2cccc(S(=O)(=O)O)c2c1 [Compound 5] |  |  | 583 nm
COc1cc(N=Nc2cccc(C(=O)O)c2)c(NC(C)=O)cc1N=Nc1c(S(=O)(=O)O)cc2ccc(N)cc2c1O [Compound 11, reference compound] |  |  | 557 nm
COc1cc(N=Nc2ccc3c(S(=O)(=O)O)cc(S(=O)(=O)O)cc3c2)c(C)cc1N=Nc1c(S(=O)(=O)O)cc2ccc(NCCS(=O)(=O)O)cc2c1O [Compound 6] | > 20 g per 100 ml | much higher solubility | 575 nm
